Measurements as given in ChEMBL document CHEMBL1150213, “Protein-tyrosine kinase inhibition: mechanism-based discovery of antitumor agents” (J Nat Prod, 1992).
Converted amounts (≈) assume the structure as drawn. Where a SMILES comes first, the peptide text is derived from it. The star is where a group is joined. CH2Cl = ClC*

Key:
[1] = biological target: T1, Epidermal growth factor receptor (Homo sapiens, UniProt P00533); assay: Inhibition of EGFR in human A431 cells at 400 nmol/mg protein in presence of EGF; assay type: cell-based; settings: A-431
T1 sequence (P00533 whole entry): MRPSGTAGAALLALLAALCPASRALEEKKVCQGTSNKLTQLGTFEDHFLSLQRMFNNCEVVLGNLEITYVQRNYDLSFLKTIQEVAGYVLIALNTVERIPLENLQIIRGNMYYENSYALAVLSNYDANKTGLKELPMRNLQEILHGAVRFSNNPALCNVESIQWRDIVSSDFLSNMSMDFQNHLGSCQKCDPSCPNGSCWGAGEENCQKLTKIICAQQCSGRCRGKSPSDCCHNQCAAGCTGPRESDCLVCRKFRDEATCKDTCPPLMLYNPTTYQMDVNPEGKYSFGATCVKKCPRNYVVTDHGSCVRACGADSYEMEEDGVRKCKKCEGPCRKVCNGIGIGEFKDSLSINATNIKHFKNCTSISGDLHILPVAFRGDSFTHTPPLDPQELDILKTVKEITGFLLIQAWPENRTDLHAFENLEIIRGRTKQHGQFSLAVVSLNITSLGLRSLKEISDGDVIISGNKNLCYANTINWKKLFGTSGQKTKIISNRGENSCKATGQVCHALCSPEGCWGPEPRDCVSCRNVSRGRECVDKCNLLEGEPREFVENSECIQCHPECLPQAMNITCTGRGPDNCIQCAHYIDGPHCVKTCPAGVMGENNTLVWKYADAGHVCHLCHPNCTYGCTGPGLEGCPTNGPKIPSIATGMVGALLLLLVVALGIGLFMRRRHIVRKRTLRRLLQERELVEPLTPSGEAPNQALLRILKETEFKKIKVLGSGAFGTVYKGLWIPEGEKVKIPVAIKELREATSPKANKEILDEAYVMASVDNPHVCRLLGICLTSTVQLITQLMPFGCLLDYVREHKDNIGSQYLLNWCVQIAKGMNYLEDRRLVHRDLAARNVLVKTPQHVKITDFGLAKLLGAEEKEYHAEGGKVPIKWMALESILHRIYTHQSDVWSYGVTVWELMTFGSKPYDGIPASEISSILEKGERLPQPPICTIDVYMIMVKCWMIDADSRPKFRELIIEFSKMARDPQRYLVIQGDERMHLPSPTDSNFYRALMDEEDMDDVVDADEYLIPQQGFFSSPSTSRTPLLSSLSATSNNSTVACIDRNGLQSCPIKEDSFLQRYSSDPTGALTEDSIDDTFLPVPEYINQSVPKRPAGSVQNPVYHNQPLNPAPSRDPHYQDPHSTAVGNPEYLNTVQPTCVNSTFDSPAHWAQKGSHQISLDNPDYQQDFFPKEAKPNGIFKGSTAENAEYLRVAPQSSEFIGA

[2] = biological target: T1, Epidermal growth factor receptor; assay: Inhibition of EGFR in human A431 cells at 400 nmol/mg protein in absence of EGF; assay type: cell-based; settings: A-431
[3] = Inhibition of p40 tyrosine kinase

Row | inhibition [1] | inhibition [2] | IC50 [3] | SMILES
1 | 44% | 71% |  | C[C@H](NC(=O)OCc1ccccc1)C(=O)CCl
2 | 15% | 21% |  | O=C(CCl)[C@H](Cc1ccccc1)NOCc1ccccc1
3 |  |  | 4 µg/mL (≈ 16.4 µM) | Oc1cc(O)cc(/C=C/c2ccc(O)c(O)c2)c1 [PICEATANNOL]
4 | 0% | 5% |  | CC(=O)NCC(=O)NCC(=O)N[C@@H](C)C(=O)N[C@@H](Cc1ccccc1)C(=O)CCl (Ac-GGAF-CH2Cl)
5 |  |  | > 5 ×10² ug/ml | O=C1C[C@@H](c2ccccc2)Oc2cc(O)cc(O)c21 [PINOCEMBRIN]
6 |  |  | > 5 ×10² ug/ml | O=C1c2ccc(O)cc2O[C@H](c2ccc(O)c(O)c2)[C@H]1O [FUSTIN]
7 | 29% | 59% |  | CC(=O)N[C@@H](Cc1ccccc1)C(=O)NCC(=O)N[C@@H](C)C(=O)N[C@@H](CC(C)C)C(=O)CCl (Ac-FGAL-CH2Cl)
